Reference: patent US7767798B2, “Loganin analogues and a process for the preparation thereof” (priority 2005, dated 2010)
In brackets after ≈: the same amount, converted by molar mass. Like-named read-outs stand apart in the source and are kept apart here.

Assays:
[1] = system: breast (MCF-7) cancer cell line; experiment: MTT cytotoxicity assay, MCF-7; type: cell-based, human; details: for IC50: Homo sapiens
Procedure: (§1) Cytotoxicity testing In-vitro was done by the method of Woerdenberg et al^17. 2×10^3 cells/well were incubated in the 5% CO2, 95% atmosphere and 37° C. in CO2 incubator for 24 h to enable them to adhere properly to the 96 well polysterene microplate (Grenier, Germany). Test compounds dissolved in 100% DMSO (Merck, Germany) in at least five doses were added and left for four hour after which the compound plus media was replaced with fresh media and the cell were incubated for another 48 h in the CO2 incubator at 37° C. […] Then, 10 μL from 5 mg/ml stock of MTT [3-(4,5-dimethylthiazol-2-yl)-2,5-diphenyltetrazolium bromide; Sigma M 2128] was added, and plate were incubated at 37° C. for 4 h. 100 μL of dimethylsulfoxide (DMSO, Merck, Germany) were added to all wells and mixed thoroughly to dissolve the dark blue crystal. After a few minute at room temperature to ensure that all crystal were dissolve, the plate were read on a Spectra Max 190 Microplate Elisa Reader (Molecular Devices Inc., U.S.A), at 570 nm. Plate were normally read within 1 h of adding the DMSO. The experiment was done in triplicate and the inhibitory concentration (IC) values were calculated as; % INHIBITION=[1−OD (570 nm) of sample well/OD (570 nm) of control well]×100. IC50 is the concentration μg/mL required for 50% inhibition of cell growth as compared to that of untreated control.

[2] = system: Ovary (PA-1) cancer cell line; experiment: MTT cytotoxicity assay, PA-1; type: cell-based, human; details: for IC50: Homo sapiens, read-out: PA-1 IC50
Procedure: as §1

[3] = system: Liver (WRL) cancer cell line; experiment: MTT cytotoxicity assay, WRL; type: cell-based, human; details: for IC50: Homo sapiens, read-out: WRL IC50
Procedure: as §1

[4] = system: Suspension Colon (COLO-320) cancer cell line; experiment: MTT cytotoxicity assay, COLO-320; type: cell-based, human; details: for times higher activity than vinblastine: COLO-320; for IC50: Homo sapiens
Procedure: as §1

[5] = system: Adherent colon (CaCo2) cancer cell line; experiment: MTT cytotoxicity assay, CaCo2; type: cell-based, human; details: for IC50: Homo sapiens
Procedure: as §1

[6] = system: human cancer cell lines (MCF-7, PA-1, WRL, COLO-320, CaCo2); experiment: MTT cytotoxicity assay, summary over the tested human cancer cell lines; details: for Dosage range IC50: range of IC50 over the tested cell lines (Table 1); for IC50: Homo sapiens
Procedure: as §1

[7] = MTT assay, MCF-7 breast cancer cells
[8] = MTT assay, PA-1 ovary cancer cells
[9] = MTT assay, WRL liver cancer cells
[10] = MTT assay, COLO-320 suspension colon cancer cells
[11] = MTT assay, CaCo2 adherent colon cancer cells
[12] = tested human cancer cell lines, comparison with loganin, compound 4 or a neighbouring analogue

Row | SMILES | MCF-7 IC50 [1, 7] [µg/mL] | PA-1 IC50 [2, 8] [µg/mL] | WRL IC50 [3, 9] [µg/mL] | COLO-320 IC50 [4, 10] [µg/mL] | CaCo2 IC50 [5, 11] [µg/mL] | Dosage range IC50 [6] [µg/mL] | cytotoxic activity in words [6, 12] | other results
1 | COC(=O)C1=COC(O[C@@H]2O[C@H](COC(=O)c3cc(OC)c(OC)c(OC)c3)[C@@H](OC(C)=O)[C@H](OC(C)=O)[C@H]2OC(C)=O)C2C1CC(OC(C)=O)C2C (stereo partly drawn) [Compound 11, 2′,3′,4′,7-Tetra-O-acetyl-6′-O-3,4,5-trimethoxy benzoyl loganin] | 0.25 | 0.10 | 0.54 | 0.04 | 0.06 | 0.044 to 3.54 | significant enhancement in the cytotoxicity | times higher activity than vinblastine [4]: 13 times; times higher activity than vinblastine ([5]; CaCO2): 8 times
2 | COC(=O)C1=COC(O[C@@H]2O[C@H](COC(=O)C=C(C)C)[C@@H](OC(C)=O)[C@H](OC(C)=O)[C@H]2OC(C)=O)C2C1CC(OC(C)=O)C2C (stereo partly drawn) [Compound 10, 2′,3′,4′,7-Tetra-O-acetyl-6′-O-3″,3″-dimethyl acryloylloganin] | 1.00 | 0.65 | 1.20 | 0.08 | 0.80 | 0.08 to 1.20 | significant enhancement of anticancer activity | 
3 | CC[C@]1(O)C[C@@H]2CN(CCc3c([nH]c4ccccc34)[C@@](C(=O)OC)(c3cc4c(cc3OC)N(C)[C@H]3[C@@](O)(C(=O)OC)[C@H](OC(C)=O)[C@]5(CC)C=CCN6CC[C@]43[C@@H]65)C2)C1 [Vinblastine, vinblastine, reference compound] |  |  |  |  |  |  |  | IC50 ([1]; MCF7, MTT assay, MCF-7 breast cancer cells, read-out: MCF-7 IC50): 0.02 µg/mL (≈ 0.0247 µM); IC50 [2, 8]: 0.025 µg/mL (≈ 0.0308 µM); IC50 [3, 9]: 1.45 µg/mL (≈ 1.79 µM); IC50 ([4]; MTT assay, COLO-320 suspension colon cancer cells, read-out: COLO-320 IC50): 0.52 µg/mL (≈ 0.641 µM); IC50 ([5]; Caco-2, MTT assay, CaCo2 adherent colon cancer cells, read-out: CaCo2 IC50): 0.46 µg/mL (≈ 0.567 µM); IC50 ([6]; read-out: Dosage range IC50): 0.02 to 1.45 µg/mL (≈ 0.0247 to 1.79 µM)
4 | COC(=O)C1=CO[C@@H](O[C@@H]2O[C@H](CO)[C@@H](O)[C@H](O)[C@H]2O)[C@@H]2[C@@H](C)[C@@H](O)C[C@H]12 [Compound 1, loganin] |  |  |  |  |  |  | significant cytotoxic activity | IC50 ([1]; MCF7, read-out: MCF-7 IC50): 4.85 µg/mL (≈ 12.4 µM); IC50 [2]: 1.45 µg/mL (≈ 3.71 µM); IC50 [3]: 1.86 µg/mL (≈ 4.76 µM); IC50 ([4]; COLO 320, read-out: COLO-320 IC50): 1 µg/mL (≈ 2.56 µM); IC50 ([5]; Caco-2, read-out: CaCo2 IC50): 1.28 µg/mL (≈ 3.28 µM); IC50 ([6]; read-out: Dosage range IC50): 1 to 5 µg/mL (≈ 2.56 to 12.8 µM); IC50 ([6]; read-out: concentration/dose used in vitro MTT assay for IC50, range): 1 to 5 µg/mL (≈ 2.56 to 12.8 µM)
5 | C=CC(=O)OC[C@H]1O[C@@H](OC2OC=C(C(=O)OC)C3CC(OC(C)=O)C(C)C23)[C@H](OC(C)=O)[C@@H](OC(C)=O)[C@@H]1OC(C)=O (stereo partly drawn) [Compound 9, 2′,3′,4′,7-Tetra-O-acetyl-6′-O-acryloyl loganin] |  |  |  |  |  |  | totally abolished the activity | 
6 | COC(=O)C1=COC(O[C@@H]2O[C@H](COC(c3ccccc3)(c3ccccc3)c3ccccc3)[C@@H](OC(C)=O)[C@H](OC(C)=O)[C@H]2OC(C)=O)C2C1CC(OC(C)=O)C2C (stereo partly drawn) [Compound 3, 2′,3′,4′,7-tetra-O-acetyl-6′-O-trityl loganin] | 1.20 | 1.20 | 2.44 | 0.82 | 3.45 | 0.80 to 3.5 | enhanced cytotoxic activity | 
7 | COC(=O)C1=COC(O[C@@H]2O[C@H](COC(=O)c3cccc([N+](=O)[O-])c3)[C@@H](OC(C)=O)[C@H](OC(C)=O)[C@H]2OC(C)=O)C2C1CC(OC(C)=O)C2C (stereo partly drawn) [Compound 12, 2′,3′,4′,7-Tetra-O-acetyl-6′-O-(3′″)-nitrobenzoyl loganin] | 1.25 | 0.85 | 3.20 | 0.44 | 1.00 | 0.44 to 3.20 | slightly decreased the activity | 
8 | CCCCCCCCCCCC(=O)OC[C@H]1O[C@@H](OC2OC=C(C(=O)OC)C3CC(OC(C)=O)C(C)C23)[C@H](OC(C)=O)[C@@H](OC(C)=O)[C@@H]1OC(C)=O (stereo partly drawn) [Compound 6, 2′,3′,4′,7-Tetra-O-acetyl-6′-O-lauroylloganin] | 0.24 | 0.15 | 0.85 | 0.04 | 0.42 | 0.04 to 0.85 |  | times higher activity than vinblastine [4]: 13 times
9 | COC(=O)C1=CO[C@@H](O[C@@H]2O[C@H](COC(c3ccccc3)(c3ccccc3)c3ccccc3)[C@@H](O)[C@H](O)[C@H]2O)[C@@H]2[C@@H](C)[C@@H](O)C[C@H]12 [Compound 2, 6′-O-trityl loganin] | 1.00 | 0.65 | 1.86 | 0.25 | 0.56 | 0.25 to 2.0 |  | cytotoxic activity in words [6]: enhanced cytotoxic activity
10 | COC(=O)C1=COC(O[C@@H]2O[C@H](CO)[C@@H](OC(C)=O)[C@H](OC(C)=O)[C@H]2OC(C)=O)C2C1CC(OC(C)=O)C2C (stereo partly drawn) [Compound 4, 2′,3′,4′,7-tetra-O-acetyl loganin] |  |  |  |  |  |  | abolished cytotoxicity | 
11 | CCCCCCCCCCCCCC(=O)OC[C@H]1O[C@@H](OC2OC=C(C(=O)OC)C3CC(OC(C)=O)C(C)C23)[C@H](OC(C)=O)[C@@H](OC(C)=O)[C@@H]1OC(C)=O (stereo partly drawn) [Compound 7, 2′,3′,4′,7-Tetra-O-acetyl-6′-O-myristoyl loganin] | 24.60 | 6.5 | 58.50 | 30.00 |  | 6.5 to 59.0 |  | 
12 | CCC(=O)OC[C@H]1O[C@@H](OC2OC=C(C(=O)OC)C3CC(OC(C)=O)C(C)C23)[C@H](OC(C)=O)[C@@H](OC(C)=O)[C@@H]1OC(C)=O (stereo partly drawn) [Compound 5, 2′,3′,4′,7-Tetra-O-acetyl-6′-O-propionylloganin] | 1.88 | 1.24 | 2.65 | 0.85 | 2.85 | 0.80 to 3.0 |  | concentration/dose used in vitro MTT assay for IC50, range ([6]; MCF-7, PA-1, WRL, COLO-320 and CaCo-2): 0.80 to 3.0 µg/mL
